According to US7994204B2, “Binding inhibitor of sphingosine-1-phosphate” (Taisho Pharmaceutical Co., Ltd, priority 2006, dated 2011):

The compounds below were run against T1, human Edg-1 (S1P1) (Homo sapiens, UniProt P21453) (assay: S1P1 binding inhibition test (membrane, [33P]-S1P)). Conditions: compound 10 μM; [33P]-S1P 0.1 nM; human Edg-1 (S1P1) HEK-293 membrane fraction; read-out: Binding test (membrane) % inhibition (10 μM).
T1 construct: expressed in transfected cells; host or cells: HEK-293
T1 sequence (P21453 whole entry): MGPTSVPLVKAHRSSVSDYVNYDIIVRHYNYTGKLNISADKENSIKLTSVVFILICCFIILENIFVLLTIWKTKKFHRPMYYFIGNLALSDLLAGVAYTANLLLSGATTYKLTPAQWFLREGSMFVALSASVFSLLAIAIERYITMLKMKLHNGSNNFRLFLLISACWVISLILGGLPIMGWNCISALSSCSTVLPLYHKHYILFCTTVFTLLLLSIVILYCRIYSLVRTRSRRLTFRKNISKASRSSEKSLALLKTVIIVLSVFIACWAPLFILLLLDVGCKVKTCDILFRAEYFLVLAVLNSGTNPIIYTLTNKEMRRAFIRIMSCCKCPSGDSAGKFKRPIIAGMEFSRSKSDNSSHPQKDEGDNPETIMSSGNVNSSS
Procedure: The membrane fraction was obtained by treating the cells with a solubilizing buffer (1 mM Tris/HCl, pH 7.2) for 10 minutes on ice, centrifuging at 1000×g for 5 minutes to remove insoluble fractions, and then centrifuging at 40000×g for 30 minutes at 4° C. The resulting membrane fraction was dissolved in a binding buffer (20 mM Tris-HCl, pH 7.4, 100 mM NaCl, 15 mM NaF, 2 mM deoxypyridoxine, 4 mg/mL fatty acid-free BSA), and then [^33P]-S1P (manufactured by ARC, final concentration 0.1 nM) and a DMSO solution (final concentration of the compound 10^−5 M, final concentration of DMSO 0.1%) of the test compound were added. Thereafter, the mixture was stirred and then treated for one hour at 30° C. Using a harvester, the membrane fraction was harvested onto unifilter-96 GF/C filter (manufactured by Perkin Elmer), washing was carried out four times with the binding buffer, and the filter was dried. Twenty five μL Microscint 0 (manufactured by Perkin Elmer) was added, and radioactivity was measured using Top Count NXT (manufactured by Packard) to calculate the amount (A) of [^33P]-S1P bound to the membrane fraction at the time when the compound was added.
The same procedure was carried out in the absence of the test compound, and the amount (B) of [^33P]-S1P bound was calculated. Further, the same procedure was carried out in the absence of the test compound by use of HEK-293 cells to which no Edg-1 (S1P1) gene was introduced, and the background amount (C) of [^33P]-S1P bound was calculated.
Inhibition rate (%)=[1−(A−C)/(B−C)]×100.
Moreover, the concentration required for a test compound to produce 50% inhibition of the binding caused in the absence of the test compound was also calculated (IC50). The above membrane system binding test was performed in the presence of a test compound at various concentrations to calculate the inhibition rate of Edg-1(S1P1) binding at each concentration according to the above equation, followed by calculating an IC50 value for each compound with data analysis software, Origin (Lightstone Corp., Japan).
For CCn1c(C(C)NS(=O)(=O)c2ccc(C(C)=O)cc2)cnc1Oc1ccc(C)cc1 (stereo not drawn) [Compound 3], the inhibition at 10 µM was 96.7%. With CCn1c(C(C)NS(=O)(=O)c2ccccc2)cnc1Oc1ccc(C)cc1 (stereo not drawn) [Compound 4] the inhibition at 10 µM was 72.8%. Compound CCn1c(C(C)NS(=O)(=O)c2ccc(Br)cc2)cnc1Oc1ccc(C)cc1 (stereo not drawn) [Compound 5] has an inhibition at 10 µM of 106%. In the case of CCn1c(C(C)NS(=O)(=O)c2ccc(C(C)(C)C)cc2)cnc1Oc1ccc(C)cc1 (stereo not drawn) [Compound 6], the inhibition at 10 µM is reported as 54.7%. With CCn1c(C(C)NS(=O)(=O)c2ccccc2Br)cnc1Oc1ccc(C)cc1 (stereo not drawn) [Compound 7] the inhibition at 10 µM was 63.3%. In the case of CCn1c(C(C)NS(=O)(=O)c2cccc(Br)c2)cnc1Oc1ccc(C)cc1 (stereo not drawn) [Compound 9], the inhibition at 10 µM is reported as 113%. Compound CCn1c(C(C)NS(=O)(=O)c2ccc(Br)cc2OC(F)(F)F)cnc1Oc1ccc(C)cc1 (stereo not drawn) [Compound 10] has an inhibition at 10 µM of 68.6%. For CCn1c(C(C)NS(=O)(=O)c2ccc(Cl)cc2)cnc1Oc1ccc(C)cc1 (stereo not drawn) [Compound 11], the inhibition at 10 µM was 103%. With CCn1c(C(C)NS(=O)(=O)c2ccc(Cl)c3nonc23)cnc1Oc1ccc(C)cc1 (stereo not drawn) [Compound 12] the inhibition at 10 µM was 68.1%. For CCn1c(C(C)NS(=O)(=O)c2cccc(C#N)c2)cnc1Oc1ccc(C)cc1 (stereo not drawn) [Compound 13], the inhibition at 10 µM was 64.4%. Work on CCn1c(C(C)NS(=O)(=O)c2sc3ccc(Cl)cc3c2C)cnc1Oc1ccc(C)cc1 (stereo not drawn) [Compound 14] yielded an inhibition at 10 µM of 76.5%. In the case of CCn1c(C(C)NS(=O)(=O)c2ccc(C)c(Cl)c2)cnc1Oc1ccc(C)cc1 (stereo not drawn) [Compound 15], the inhibition at 10 µM is reported as 108%. With CCn1c(C(C)NS(=O)(=O)c2cc(C)c(Cl)cc2C)cnc1Oc1ccc(C)cc1 (stereo not drawn) [Compound 16] the inhibition at 10 µM was 109%. In the case of CCn1c(C(C)NS(=O)(=O)c2cc(Cl)ccc2Cl)cnc1Oc1ccc(C)cc1 (stereo not drawn) [Compound 17], the inhibition at 10 µM is reported as 80%. With CCn1c(C(C)NS(=O)(=O)c2c(Cl)cccc2Cl)cnc1Oc1ccc(C)cc1 (stereo not drawn) [Compound 18] the inhibition at 10 µM was 72.8%. CCn1c(C(C)NS(=O)(=O)c2ccc(OC)c(OC)c2)cnc1Oc1ccc(C)cc1 (stereo not drawn) [Compound 19] gave an inhibition at 10 µM of 87.3%. With CCc1ccc(S(=O)(=O)NC(C)c2cnc(Oc3ccc(C)cc3)n2CC)cc1 (stereo not drawn) [Compound 21] the inhibition at 10 µM was 66.8%. CCn1c(C(C)NS(=O)(=O)c2ccc(F)cc2)cnc1Oc1ccc(C)cc1 (stereo not drawn) [Compound 22] gave an inhibition at 10 µM of 92.1%. CCn1c(C(C)NS(=O)(=O)c2ccc(OC)cc2)cnc1Oc1ccc(C)cc1 (stereo not drawn) [Compound 23] gave an inhibition at 10 µM of 98.6%. CCn1c(C(C)NS(=O)(=O)c2ccc(S(C)(=O)=O)cc2)cnc1Oc1ccc(C)cc1 (stereo not drawn) [Compound 25] showed an inhibition at 10 µM of 62%. Work on CCn1c(C(C)NS(=O)(=O)c2cccc3ccccc23)cnc1Oc1ccc(C)cc1 (stereo not drawn) [Compound 27] yielded an inhibition at 10 µM of 68.5%. In the case of CCn1c(C(C)NS(=O)(=O)c2ccc3ccccc3c2)cnc1Oc1ccc(C)cc1 (stereo not drawn) [Compound 28], the inhibition at 10 µM is reported as 114%. Work on CCn1c(C(C)NS(=O)(=O)CCc2cccc3ccccc23)cnc1Oc1ccc(C)cc1 (stereo not drawn) [Compound 29] yielded an inhibition at 10 µM of 52.5%. CCn1c(C(C)NS(=O)(=O)c2c(F)c(F)c(F)c(F)c2F)cnc1Oc1ccc(C)cc1 (stereo not drawn) [Compound 30] was tested, and the inhibition at 10 µM was 75.8%. CCn1c(C(C)NS(=O)(=O)c2ccc(I)cc2)cnc1Oc1ccc(C)cc1 (stereo not drawn) [Compound 31] showed an inhibition at 10 µM of 93.3%. Compound CCn1c(C(C)NS(=O)(=O)/C=C/c2ccccc2)cnc1Oc1ccc(C)cc1 (stereo not drawn) [Compound 32] has an inhibition at 10 µM of 93.5%. Compound CCn1c(C(C)NS(=O)(=O)c2cc(Cl)c(Cl)cc2Cl)cnc1Oc1ccc(C)cc1 (stereo not drawn) [Compound 33] has an inhibition at 10 µM of 115%. In the case of CCn1c(C(C)NS(=O)(=O)c2ccc(C)cc2)cnc1Oc1ccc(C)cc1 (stereo not drawn) [Compound 35], the inhibition at 10 µM is reported as 98.1%. CCn1c(C(C)NS(=O)(=O)c2cccc(C(F)(F)F)c2)cnc1Oc1ccc(C)cc1 (stereo not drawn) [Compound 37] gave an inhibition at 10 µM of 98.5%. Compound CCn1c(C(C)NS(=O)(=O)c2ccccc2C)cnc1Oc1ccc(C)cc1 (stereo not drawn) [Compound 38] has an inhibition at 10 µM of 79.8%. In the case of CCn1c(C(C)NS(=O)(=O)c2ccc(OC(F)(F)F)cc2)cnc1Oc1ccc(C)cc1 (stereo not drawn) [Compound 39], the inhibition at 10 µM is reported as 64.8%. C=Cc1ccc(S(=O)(=O)NC(C)c2cnc(Oc3ccc(C)cc3)n2CC)cc1 (stereo not drawn) [Compound 40] showed an inhibition at 10 µM of 81.2%. Work on CCn1c(C(C)NS(=O)(=O)c2cccc(C)c2)cnc1Oc1ccc(C)cc1 (stereo not drawn) [Compound 41] yielded an inhibition at 10 µM of 82.3%. CCn1c(C(C)NS(=O)(=O)c2ccc(C(F)(F)F)cc2)cnc1Oc1ccc(C)cc1 (stereo not drawn) [Compound 44] was tested, and the inhibition at 10 µM was 93.5%. CCn1c(C(C)NS(=O)(=O)c2cc(C)ccc2C)cnc1Oc1ccc(C)cc1 (stereo not drawn) [Compound 45] gave an inhibition at 10 µM of 85.8%. CCn1c(C(C)NS(=O)(=O)c2ccc(-c3csnn3)s2)cnc1Oc1ccc(C)cc1 (stereo not drawn) [Compound 46] showed an inhibition at 10 µM of 58.8%. CCn1c(C(C)NS(=O)(=O)c2ccc(C(=O)OC)n2C)cnc1Oc1ccc(C)cc1 (stereo not drawn) [Compound 51] was tested, and the inhibition at 10 µM was 93.7%. Work on CCCc1ccc(S(=O)(=O)NC(C)c2cnc(Oc3ccc(C)cc3)n2CC)cc1 (stereo not drawn) [Compound 56] yielded an inhibition at 10 µM of 57.3%. With CCn1c(C(C)NS(=O)(=O)c2ccc(Cl)c(Cl)c2Cl)cnc1Oc1ccc(C)cc1 (stereo not drawn) [Compound 57] the inhibition at 10 µM was 103%. With CCn1c(C(C)NS(=O)(=O)c2c(C)c(C)cc(C)c2C)cnc1Oc1ccc(C)cc1 (stereo not drawn) [Compound 58] the inhibition at 10 µM was 66.4%. In the case of CCn1c(C(C)NS(=O)(=O)c2cccc(Cl)c2Cl)cnc1Oc1ccc(C)cc1 (stereo not drawn) [Compound 59], the inhibition at 10 µM is reported as 101%. Work on CCn1c(C(C)NS(=O)(=O)c2c(C)cccc2Cl)cnc1Oc1ccc(C)cc1 (stereo not drawn) [Compound 60] yielded an inhibition at 10 µM of 64.5%. In the case of CCn1c(C(C)NS(=O)(=O)c2cc(C(F)(F)F)cc(C(F)(F)F)c2)cnc1Oc1ccc(C)cc1 (stereo not drawn) [Compound 62], the inhibition at 10 µM is reported as 85.6%. Compound CCn1c(C(C)NS(=O)(=O)c2cc(Cl)cc(Cl)c2)cnc1Oc1ccc(C)cc1 (stereo not drawn) [Compound 63] has an inhibition at 10 µM of 95.3%. For CCn1c(C(C)NS(=O)(=O)c2cccc(Cl)c2C)cnc1Oc1ccc(C)cc1 (stereo not drawn) [Compound 64], the inhibition at 10 µM was 96.7%. Compound CCn1c(C(C)NS(=O)(=O)c2ccc(F)c(Cl)c2)cnc1Oc1ccc(C)cc1 (stereo not drawn) [Compound 65] has an inhibition at 10 µM of 106%. CCn1c(C(C)NS(=O)(=O)c2cccc(OC)c2)cnc1Oc1ccc(C)cc1 (stereo not drawn) [Compound 66] gave an inhibition at 10 µM of 89.9%. Work on CCn1c(C(C)NS(=O)(=O)c2cc(F)c(Br)cc2F)cnc1Oc1ccc(C)cc1 (stereo not drawn) [Compound 67] yielded an inhibition at 10 µM of 84.6%. CCn1c(C(C)NS(=O)(=O)c2c(C)cc(OC)c(C)c2C)cnc1Oc1ccc(C)cc1 (stereo not drawn) [Compound 68] showed an inhibition at 10 µM of 64.7%. Compound CCn1c(C(C)NS(=O)(=O)c2cc(Br)ccc2OC)cnc1Oc1ccc(C)cc1 (stereo not drawn) [Compound 69] has an inhibition at 10 µM of 82.9%. CCn1c(C(C)NS(=O)(=O)c2cc(F)ccc2C)cnc1Oc1ccc(C)cc1 (stereo not drawn) [Compound 70] showed an inhibition at 10 µM of 56.8%. CCn1c(C(C)NS(=O)(=O)c2c(C)c(C)c(C)c(C)c2C)cnc1Oc1ccc(C)cc1 (stereo not drawn) [Compound 71] gave an inhibition at 10 µM of 72%. CCn1c(C(C)NS(=O)(=O)c2ccc(Br)c(Br)c2)cnc1Oc1ccc(C)cc1 (stereo not drawn) [Compound 72] gave an inhibition at 10 µM of 90.1%. Work on CCn1c(C(C)NS(=O)(=O)c2cc(C)ccc2OC)cnc1Oc1ccc(C)cc1 (stereo not drawn) [Compound 73] yielded an inhibition at 10 µM of 74.3%. CCn1c(C(C)NS(=O)(=O)c2ccc(Cl)c(Cl)c2)cnc1Oc1ccc(C)cc1 (stereo not drawn) [Compound 74, 3,4-Dichloro-N-[1-(3-ethyl-2(4-methylphenoxy)-3H-imidazol-4-yl)-ethyl]-benzenesulfonamide] showed an inhibition at 10 µM of 101%. In the case of CCn1c(C(C)NS(=O)(=O)c2ccc(C#N)cc2)cnc1Oc1ccc(C)cc1 (stereo not drawn) [Compound 76], the inhibition at 10 µM is reported as 89.3%. CCn1c(C(C)NS(=O)(=O)c2c(Cl)cc(Cl)cc2Cl)cnc1Oc1ccc(C)cc1 (stereo not drawn) [Compound 78] gave an inhibition at 10 µM of 66.7%. In the case of CCn1c(C(C)NS(=O)(=O)c2ccc(Cl)cc2Cl)cnc1Oc1ccc(C)cc1 (stereo not drawn) [Compound 79], the inhibition at 10 µM is reported as 90.1%. With CCn1c(C(C)NS(=O)(=O)c2ccc(F)cc2F)cnc1Oc1ccc(C)cc1 (stereo not drawn) [Compound 80] the inhibition at 10 µM was 61.2%. CCn1c(C(C)NS(=O)(=O)c2cc(OC)ccc2OC)cnc1Oc1ccc(C)cc1 (stereo not drawn) [Compound 81] showed an inhibition at 10 µM of 83.1%. CCn1c(C(C)NS(=O)(=O)c2cccc(Cl)c2)cnc1Oc1ccc(C)cc1 (stereo not drawn) [Compound 84] showed an inhibition at 10 µM of 72.4%. Compound CCn1c(C(C)NS(=O)(=O)c2cc(F)cc(Cl)c2C)cnc1Oc1ccc(C)cc1 (stereo not drawn) [Compound 86] has an inhibition at 10 µM of 74.4%. CCc1cc(Br)ccc1S(=O)(=O)NC(C)c1cnc(Oc2ccc(C)cc2)n1CC (stereo not drawn) [Compound 87] was tested, and the inhibition at 10 µM was 65.6%. Compound CCn1c(C(C)NS(=O)(=O)c2ccc(Br)cc2C)cnc1Oc1ccc(C)cc1 (stereo not drawn) [Compound 88] has an inhibition at 10 µM of 74.2%. CCn1c(C(C)NS(=O)(=O)c2ccc(C#N)cc2Cl)cnc1Oc1ccc(C)cc1 (stereo not drawn) [Compound 89] showed an inhibition at 10 µM of 71.8%.

Same assay, conditions: read-out: Binding test (membrane) % inhibition (10 μM)
CCn1c(C(C)NS(=O)(=O)c2ccc(F)cc2Cl)cnc1Oc1ccc(C)cc1 (stereo not drawn) [Compound 82] showed an inhibition at 10 µM of 64.2%.
